# Measured values from patent US11957699B2, “Composition comprising punicalagin for inhibiting PAR2 activity” (INDUSTRY-ACADEMIC COOPERATION FOUNDATION, YONSEI UNIVERSITY, priority 2018, dated 2024).
# Columns and labels:
# [1] = test system: C57BL6N mice with pruritus induced by PAR2-AP; test: Pruritus induced by PAR2-AP in mice (number of scratches); type: in vivo
# Procedure: In seven-week-old C57BL6N mice, it was confirmed whether punicalagin (PG) has an effect of alleviating pruritus symptoms induced by PAR2 receptor activation by PAR2-AP (activating peptide). In addition, the effects of punicalin (PNC) and ellagic acid (EA), which are metabolites of punicalagin and contained in pomegranate peel in a large amount, were also confirmed.
# Specifically, each of 0, 1, 3, and 10 mg/kg punicalagin (n=4) was dissolved in physiological saline and intraperitoneally injected, and after 30 minutes, 100 μg of PAR2-AP was intradermally injected to induce pruritus. As control groups, a group which was intraperitoneally injected with physiological saline only (n=4) and a group which was intraperitoneally injected with 10 mg/kg punicalagin (n=4) were established, and the number of scratches was measured for 40 minutes.
# PAR2 [2] = molecular target: T1, PAR2 (Homo sapiens, UniProt P55085); test: Intracellular calcium increase by trypsin (PAR2 receptor activation) in HaCaT keratinocytes; type: cell-based; set-up: endogenous in cells; host or cells: HaCaT keratinocytes; conditions: HaCaT, 0.1 μM trypsin, 10 minutes pretreatment
# T1 sequence (P55085 26-397): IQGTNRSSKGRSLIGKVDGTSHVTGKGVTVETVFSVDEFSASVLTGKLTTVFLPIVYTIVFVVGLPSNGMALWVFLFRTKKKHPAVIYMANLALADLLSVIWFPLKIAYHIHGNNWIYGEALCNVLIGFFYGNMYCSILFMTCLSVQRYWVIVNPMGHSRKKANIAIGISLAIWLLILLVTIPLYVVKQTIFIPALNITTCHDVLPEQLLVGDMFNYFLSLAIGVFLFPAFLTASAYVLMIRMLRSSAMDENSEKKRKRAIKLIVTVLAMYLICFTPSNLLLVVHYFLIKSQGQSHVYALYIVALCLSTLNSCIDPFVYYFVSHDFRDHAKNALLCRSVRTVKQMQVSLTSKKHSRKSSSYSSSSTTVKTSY
# Procedure: After keratinocytes (HaCaT) were cultured for 48 hours in a 96-well micro plate with the DMEM culture medium, the culture medium was removed, and then, 100 μL of the Flou4-NW dye mixture was added. While blocking the light, it was stabilized for 1 hour such that a calcium ion dye (Ca^2+ dye) was loaded into the cells. 100 μM punicalagin was treated, and the concentration change of intracellular calcium ions was measured for 5 minutes (panel A of FIG. 17). Next, punicalin (0, 1, 3, 10, 20, 30, 100, and 300 μM) by concentration (panel B of FIG. 17) or punicalagin (0, 1, 3, 5, 10, 20, 30, and 100 μM) by concentration (panel C of FIG. 17) was treated for 10 minutes, and then, each well was treated with 0.1 μM trypsin to measure the concentration change of intracellular calcium ions according to PAR2 receptor activation.
# PAR2 [3] = molecular target: T1, PAR2; test: Increase of intracellular calcium ions by PAR2-AP in HT-29 cells (Fluo4-NW); type: cell-based; set-up: endogenous in cells; host or cells: HT-29 colon cancer cells
# Procedure: After colon cancer cells (HT-29) were cultured for 48 hours in a 96-well micro plate with the RPMI1640 culture medium, the culture medium was removed, and then, 100 μL of the Flou4-NW dye mixture was added. While blocking the light, it was stabilized for 1 hour such that a calcium ion dye (Ca^2+ dye) was loaded into the cells. Next, after treating punicalin (0, 3, 10, and 30 μM), punicalagin (0, 0.3, 1, 2, 3, and 10 μM), or ellagic acid (0, 30, and 100 μM) for 10 minutes by concentration, each well was treated with 30 μM PAR2-AP (PAR2-activating peptide, SLIGRL-NH2) to measure the concentration change in intracellular calcium ions.
# [4] = test system: SD rats with acute pancreatitis induced by caerulein; test: Acute pancreatitis induced by caerulein in rats; type: in vivo; conditions: 10 mg/kg, 30 minutes before 40 μg/kg caerulein, pancreas extracted after 2 hours
# Procedure: In 6-week-old SD rats, it was confirmed whether punicalagin has an effect of alleviating symptoms of acute pancreatitis induced by caerulein.
# Specifically, […], and after 30 minutes, 40 μg/kg of caerulein, which is an acute pancreatitis-inducing substance, was intraperitoneally injected, and then, after 2 hours, the pancreas of the experimental animals was extracted and analyzed.
# First, the weight of the extracted pancreas was measured to determine whether punicalagin inhibits edema, which is a symptom of acute pancreatitis. As a result, it was confirmed that when 10 mg/kg punicalagin was administered to […], in which acute pancreatitis was induced by caerulein, the edema of the pancreas was inhibited by 95% or more (panel A of FIG. 8).
# Next, as a result of observing the nucleus and cytoplasm of the extracted pancreatic tissue with a microscope through H&E staining in order to confirm the damage to pancreatic cells by caerulein, it was confirmed that in the rats administered with caerulein, the distance between pancreatic cells was increased and the cells were damaged due to symptoms of acute pancreatitis.
inhibitory effect on the PAR2 receptor (PAR2 [3]; found by compound library search and molecular physiological experiments),"inhibition of the PAR2 receptor (PAR2 [3]; HT-29 cells, PAR2-AP, high concentration (100 μM))",SMILES,"number of scratches for 40 minutes ([1]; 10 mg/kg, PAR2-AP group about 240)",inhibition of PAR2 receptor activity by trypsin (PAR2 [2]),numbers of scratches ([1]; 3 mg/kg ellagic acid group (n=3)),inhibition of edema of the pancreas (pancreas weight) [4]
relatively weak inhibitory effect,–,"O=C1OC[C@H]2OC(O)[C@H](O)[C@@H](O)[C@@H]2OC(=O)c2cc(O)c(O)c(O)c2-c2c(O)c(O)c3oc(=O)c4c(c(O)c(O)c5oc(=O)c2c3c54)-c2c1cc(O)c(O)c2O (mixture of isomers) [punicalin, reference compound]",about 197 times,inhibited PAR2 receptor activity by trypsin in a concentration-dependent manner,–,–
–,did not inhibit,"O=c1oc2c(O)c(O)cc3c(=O)oc4c(O)c(O)cc1c4c23 [ellagic acid, reference compound]",–,–,not significantly reduced,not significantly inhibited
